Data as given in the NIST ThermoML archive (doi:10.1016/j.tca.2006.06.022).
Numbers after ± are expanded uncertainties.

Assays:
[1] = Molar enthalpy of transition or fusion; conditions: DSC
[2] = DTA

Molar enthalpy of transition or fusion ([1]; Crystal 1)	Molar enthalpy of transition or fusion ([1]; Crystal 2)	Molar enthalpy of transition or fusion ([1]; Crystal 3)	Triple point temperature ([2]; Crystal 1)	Triple point temperature ([2]; Crystal 2)	Triple point temperature ([2]; Crystal 3)	Molar enthalpy of transition or fusion ([1]; Crystal 4)	Triple point temperature ([2]; Crystal 4)	Compound
39.7 ± 0.813 kcal/mol	2.02 ± 0.0574 kcal/mol	0.504 ± 0.0287 kcal/mol	357.3 ± 0.1 K	348.6 ± 0.1 K	344.6 ± 0.1 K			CCCCCCCCCCCCCCCCCCCCCCCCCCCCCCCCCCCCCCCCCC [dotetracontane]
24.5 ± 0.502 kcal/mol	6.82 ± 0.153 kcal/mol	3.59 ± 0.0884 kcal/mol	349.2 ± 0.1 K	347.1 ± 0.1 K	346.8 ± 0.1 K	0.112 ± 0.0208 kcal/mol	343.6 ± 0.1 K	CCCCCCCCCCCCCCCCCCCCCCCCCCCCCCCCCCCC [hexatriacontane]
34.4 ± 0.717 kcal/mol	2.05 ± 0.0574 kcal/mol	0.601 ± 0.0311 kcal/mol	354.6 ± 0.1 K	347.7 ± 0.1 K	345 ± 0.1 K			CCCCCCCCCCCCCCCCCCCCCCCCCCCCCCCCCCCCCCCC [tetracontane]
22.9 ± 0.478 kcal/mol	11.2 ± 0.239 kcal/mol	0.0968 ± 0.0203 kcal/mol	346.1 ± 0.1 K	343.5 ± 0.1 K	342.8 ± 0.1 K			CCCCCCCCCCCCCCCCCCCCCCCCCCCCCCCCCC [tetratriacontane]
